Patent US9175036B2, “Antimicrobial water treatment membranes and production thereof” (BEN-GURION UNVERSITY OF THE NEGEV RESEARCH AND DEVELOPMENT …, priority 2009, dated 2015)
Values after ≈ are worked out from the molar mass of the structure shown. Square brackets hold non-standard residues; d marks the D form. Peptide text beside a SMILES is read from it. βAla = NCCC(=O)O

Assays:
[1] = tested on: Enterobacter; assay type: cell-based
Procedure: The IC50 is determined by an essay, suitable for the specific film-forming microorganism in question. For example, in the present invention, the Enterobacter assay, which is described in detail in the methods section below, was used to determine the antimicrobial activities of the tested peptides.
Quantitative Biofilm Growth Inhibition Assay in a 96-Wells Microtiter Plate:
Enterobacter culture (50 ml) was grown in tryptic soy broth media (TBS; prepared according to manufacturer instructions) overnight at 25° C. On the next day the turbidity of the culture was measured at 600 nm (Biomate 5 UV-Vis spectrophotometer, Thermo Fisher Scientific, Waltham, Mass.) and, if necessary, TSB was added to dilute the culture until the OD was 1.
Then 96 wells polystyrene microtiter plates (flat bottom, transparent, Becton Dickinson, Franklin Lakes, New-Jersey) were filled as following: Negative control wells (without bacteria) were filled with 125 μl TSB media and 25 μl of DDW:PBS1:1 buffer solution; Positive control wells (without peptide solution) were filled with 110 μl TSB media, 25 μl of DDW:PBS1:1 buffer solution and 15 μl of Enterobacter culture solution; Wells that contained AMPs at different concentrations were filled with 110 μl TSB media, 25 μl of peptide solution and 15 μl of Enterobacter culture solution.
The plates were incubated at 25° C. overnight. On the next day the plates were gently rinsed 5 times with distilled water to remove the planktonic bacteria and then dried at room temperature for 10 minutes. Then the biofilm on the walls of the wells was dyed by adding 200 μl, of 3% crystal violet (CV) to the wells. After 15 minutes at room temperature, the plates were gently rinsed 5 times with distilled water to remove excess dye and dried at room temperature for 10 minutes (Djordjevic, Wiedmann & McLandsborough 2002). The dry plates were filled with 200 μl ethanol, covered and gently agitated (Duomax 1030 rocking platform shaker, Heidolph, Kelheim, Germany) for 1 hour. The absorbance of extracted color was measured in a plate reading spectrophotometer (Infinite M200, Tecan, Mannedorf, Switzerland) at 595 nm.
The effect of linking the arm to a peptide, on the antimicrobial activity of the peptides was assessed by measuring the peptide activity in 96-microtitter plates in solution and comparing to activities of the normal peptides. Experiments were performed in water and in 3% NaCl solution. Table 6 presents the antimicrobial activity (IC50) of peptide-arm systems, in water and in 3% NaCl solution. Values were extracted from dose-response curves.
Different concentration solutions of peptides, bought or prepared as detailed in the methods section above, were prepared by diluting a stock solution with 1% ACN. Stock solution was prepared by dissolving water soluble peptides in DDW:PBS1:1. PBS (pH=7.4) was prepared by adding to 800 ml DDW, 8 grams NaCl, 0.2 grams KCl, 1.44 grams Na2HPO4 and 0.2 grams KH2PO4.
To evaluate whether attachment of a tether to the AMPs has an effect on the inhibitory potency, a PEGylated peptide (HS-PEG-D-Modelin-1) was prepared, and its inhibitory potency compared to that of the ‘normal’ peptide All-D-Modelin-1. Peptides were diluted in 2-fold serial dilutions, and the antibacterial activity of the peptides was determined in sterile 96-multititter plates.

[2] = tested on: biofilm; test: Biovolume of biofilm on graft-polymerized RO membranes (FIGS. 4-6); assay type: cell-based; conditions: immobilized on RO membrane after graft polymerization and 1,4-butadiamine; FIGS. 4 and 5
Text: FIGS. 4 and 5 show the biovolume of biofilm on RO membranes modified with Cys-Modelin-1, whereas in FIG. 4: (A) is an unmodified membrane (control), (B) is after Graft polymerization (GP), (C) is after GP and 1,4-butadiamine, (D) is after GP, 1,4-butadiamine and MI (maleimide-hexanoic acid), and (E) is after GP, 1,4-butadiamine, MI and C-Modelin-1.
Another example for immobilization through multivalent system is shown in FIG. 6, showing the volume of the biofilm by graft polymerization with 0.2:0.2 M MA:PEGM and immobilization with All-D-Cys-Modelin-1. […] The inhibition was very much dependent of the graft polymerization step: Grafting by 0.2:0.2 M of monomers PEGMA:MA (see Scheme 6 for monomer structures) gave the best results.

[3] = tested on: pronase E; assay type: in vitro ADME
Procedure: (§1) Proteolytic Stability Assay of Peptides:
Stock solution (0.56 mg/ml) of each peptide was prepared by dissolving the peptide in PBS (pH=7.4). To each 90 μl of peptide solution 10 μl of enzyme solution, containing either a mixture of 0.5 μg trypsin (0.05 mg/ml) and 0.5 μg chymotrypsin (0.05 mg/ml) or 4 μg pronase E (0.4 mg/ml) in 0.001M HCl, was added. The enzymatic degradation of the peptide was monitored at controlled temperature of 25° C. by RP-HPLC with detection at 220 nm using Phenomenex C18 4.6×250 mm column with 5 μm particle size and 110 Å pore size. Elution gradient was: t=0 minutes, B=15%; t=5 minutes, B=15%; t=40 minutes, B=70%; t=42 minutes, B=95%; t=52 minutes, B=95% (flow rate 1 ml/minute).
(§2) Enzymes concentrations were determined by preliminary experiment that was performed to screen for concentrations allowing complete degradation of C-Modelin-1 within 1-2 hours. 10 μl of enzyme solution with varying concentrations were added to 90 μl of peptide solution (0.56 mg/ml) and enzymatic degradation of the peptide was monitored by RP-HPLC.
The enzymatic degradation was monitored at a fixed temperature of 25° C. by RP-HPLC at 220 nm, as described before. Elution gradient started with 85% A/15% B for 5 minutes continued with 30% A/70% B for 35 minutes and ended with 5% A-95% B for 12 minutes.
All the enzymes were used in concentrations allowing complete degradation of C-Modelin-1 within […].

[4] = tested on: proteolytic enzymes (trypsin, chymotrypsin, pronase E); assay type: in vitro ADME
Procedure: Resistance to proteolysis can be determined according to trypsin, chymotrypsin or pronase E assay, as detailed below in the Methods section, namely by adding to each 90 μl of peptide solution, 10 μl of enzyme solution, containing either a mixture of 0.5 μg trypsin (0.05 mg/ml) and 0.5 μg chymotrypsin (0.05 mg/ml) or 4 μg pronase E (0.4 mg/ml) in 0.001M HCl. The enzymatic degradation of the peptide is monitored at controlled temperature of 25° C. A peptide can be considered to be resistant to proteolysis if it withstands this assay for at least 1 week, maintaining at least 90% of its initial concentration after this period.
as §1
Stock solution (0.56 mg/ml) of each peptide was prepared by dissolving the peptide in PBS (pH=7.4). […] The enzymatic degradation of the peptide was monitored at controlled temperature of 25° C. by RP-HPLC with detection at 220 nm using Phenomenex C18 4.6×250 mm column with 5 μm particle size and 110 Å pore size. […]
as §2, with “RP-HPLC. […]” for “RP-HPLC.”

[5] = tested on: biofilm; test: Confocal microscope analysis of biofilm developed on modified RO membranes; assay type: cell-based; conditions: biofilm on RO membrane modified with the peptide
Procedure: b) Quantitative Measurements:
For biofilm growth measurements, modified membranes were tested in static conditions and in a flow-through system.
For static conditions membranes were glued with RTV 186 glue to a 1 cm×1 cm glass slides and were incubated in 24-wells plate, containing Green fluorescent protein (GFP) expressing Pseudomonas aeruginosa culture, for 18 hours (37° C.). Then, the membranes were washed with DDW to remove planktonic bacteria and the formed biofilm was detected by Leica DM 2500 confocal laser scanning microscope (CLSM, Wetzlar, Germany).
For the flow-through system, 1 cm×1 cm membranes were glued to a 2.6 cm×7.6 cm glass slide and the slide was placed in a flow cell. First, GFP expressing Pseudomonas aeruginosa was introduced to the cell and incubated for 1 hour. Then, the planktonic bacteria were washed out and sterile growth media was brought in to the cell with 50 ml/h flow rate. After 24 hours the sample was removed from the cell and biofilm fluorescence was detected by confocal laser scanning microscope. The dyed membranes were analyzed by a confocal laser scanning microscope.
Quantitative and qualitative indications for biofilm formation on modified vs. non modified RO membranes were checked.
The results of the confocal microscope analysis of the biofilm that developed on the different membranes showing reduced biofilm formation on the modified membranes are summarized in Table 15.

IC50 [1] [µg/mL]	Compound	reduced biofilm growth [2] [%]	digestion first detected after [3] [min]	peptides completely degraded after [3] [min]	Biovolume [5]	Thickness [5] [μm]	IC50 Normal conditions [1] [µg/mL]	further results
10 (≈ 4.11 µM)	CC(C)C[C@@H](NC(=O)[C@@H](CCCCN)NC(=O)[C@H](N)CS)C(=O)N[C@H](Cc1c[nH]c2ccccc12)C(=O)N[C@H](CCCCN)C(=O)N[C@H](CCCCN)C(=O)N[C@H](Cc1c[nH]c2ccccc12)C(=O)N[C@H](C)C(=O)N[C@H](CCCCN)C(=O)N[C@H](CCCCN)C(=O)N[C@H](Cc1c[nH]c2ccccc12)C(=O)N[C@H](CC(C)C)C(=O)N[C@H](CCCCN)C(=O)N[C@H](CC(C)C)C(=O)N[C@H](Cc1c[nH]c2ccccc12)C(=O)N[C@H](CCCCN)C(=O)N[C@H](C)C(=O)N[C@H](Cc1c[nH]c2ccccc12)C(=O)O [All-D C-Modelin-1, CKLWKKWAKKWLKLWKAW] (H-[dC][dK][dL][dW][dK][dK][dW][dA][dK][dK][dW][dL][dK][dL][dW][dK][dA][dW]-OH)							higher stability compared with the unprotected Cys-Modelin-1 [4]: over 100 fold; remained stable when treated with the proteolytic enzymes [4]: over 2 weeks
	O=C(O)CCCCCN1C(=O)C=CC1=O [maleimide-hexanoic acid, 6-maleimidohexanoic acid]	95						
	CC(C)C[C@H](NC(=O)[C@H](CCCCN)NC(=O)CNC(=O)CNC(=O)CNC(=O)CNC(=O)[C@@H](N)CS)C(=O)N[C@@H](Cc1c[nH]c2ccccc12)C(=O)N[C@@H](CCCCN)C(=O)N[C@@H](CCCCN)C(=O)N[C@@H](Cc1c[nH]c2ccccc12)C(=O)N[C@@H](C)C(=O)N[C@@H](CCCCN)C(=O)N[C@@H](CCCCN)C(=O)N[C@@H](Cc1c[nH]c2ccccc12)C(=O)N[C@@H](CC(C)C)C(=O)N[C@@H](CCCCN)C(=O)N[C@@H](CC(C)C)C(=O)N[C@@H](Cc1c[nH]c2ccccc12)C(=O)N[C@@H](CCCCN)C(=O)N[C@@H](C)C(=O)N[C@@H](Cc1c[nH]c2ccccc12)C(=O)O [CG4-Modelin-1] (H-CGGGGKLWKKWAKKWLKLWKAW-OH; N-terminus assumed)				9.3 * 10^4 μm^3	9.5	100 (≈ 37.6 µM)	
	N=C(N)NCCC[C@H](NC(=O)CNC(=O)CNC(=O)CNC(=O)[C@@H](N)CS)C(=O)N[C@@H](CCCNC(=N)N)C(=O)N[C@@H](Cc1c[nH]c2ccccc12)C(=O)N[C@@H](Cc1c[nH]c2ccccc12)C(=O)N[C@@H](CCCNC(=N)N)C(=O)N[C@@H](Cc1ccccc1)C(N)=O [CG3-Hexapeptide-4, CGGGRRWWRF-NH2] (H-CGGGRRWWRF-NH2; N-terminus assumed)				8.9 * 10^4 μm^3	9.5	160 (≈ 125 µM)	IC50 in 3% Aqueous NaCl [1]: 150 µg/mL (≈ 117 µM)
4 (≈ 1.6 µM)	CC(C)C[C@H](NC(=O)[C@H](CCCCN)NC(=O)[C@H](CC(C)C)NC(=O)[C@H](Cc1c[nH]c2ccccc12)NC(=O)[C@H](CCCCN)NC(=O)[C@H](CCCCN)NC(=O)[C@H](C)NC(=O)[C@H](Cc1c[nH]c2ccccc12)NC(=O)[C@H](CCCCN)NC(=O)[C@H](CCCCN)NC(=O)[C@H](Cc1c[nH]c2ccccc12)NC(=O)[C@H](CC(C)C)NC(=O)[C@H](CCCCN)NC(=O)[C@@H](N)CS)C(=O)N[C@@H](Cc1c[nH]c2ccccc12)C(=O)N[C@@H](CCCCN)C(=O)N[C@@H](C)C(=O)N[C@@H](Cc1c[nH]c2ccccc12)C(=O)NCCC(=O)O [C-Modelin-1-βAla, CKLWKKWAKKWLKLWKAW-βAla] (H-CKLWKKWAKKWLKLWKAW[βAla]-OH)		5	135				

Compound	IC50 [1] [µg/mL]	reduced biofilm growth [2] [%]	digestion first detected after [3] [min]	peptides completely degraded after [3] [min]	Biovolume [5]	Thickness [5] [μm]	IC50 Normal conditions [1] [µg/mL]	further results
CC(C)C[C@H](NC(=O)[C@H](CCCCN)NC(=O)[C@H](CC(C)C)NC(=O)[C@H](Cc1c[nH]c2ccccc12)NC(=O)[C@H](CCCCN)NC(=O)[C@H](CCCCN)NC(=O)[C@H](C)NC(=O)[C@H](Cc1c[nH]c2ccccc12)NC(=O)[C@H](CCCCN)NC(=O)[C@H](CCCCN)NC(=O)[C@H](Cc1c[nH]c2ccccc12)NC(=O)[C@H](CC(C)C)NC(=O)[C@H](CCCCN)NC(=O)[C@@H](N)CS)C(=O)N[C@@H](Cc1c[nH]c2ccccc12)C(=O)N[C@@H](CCCCN)C(=O)N[C@@H](C)C(=O)N[C@@H](Cc1c[nH]c2ccccc12)C(=O)O [C-Modelin-1, CKLWKKWAKKWLKLWKAW] (H-CKLWKKWAKKWLKLWKAW-OH)	11 (≈ 4.52 µM)	65	5	135				
